Results reported in patent US12303594B2, “Antimicrobial and anti-inflammatory compositions” (The Texas A&M University System, priority 2015, dated 2025).

Tests used:
[1] = Particle size distribution by laser light diffraction; assay type: physicochemical
Experimental: The particle size distribution (PSD) D10, D50, and D90 values for each sample were defined as particle diameters at the 10th, 50th, and 90th percentile and the span value was calculated according to Equation 2: […]
PSD analysis by laser light diffraction: PSDs were determined using a Sympatec Helos equipped with a Cuvette module (System-Partikel-Technik GmbH, Clausthal-Zellerfeld, Germany). Data were analyzed using the Sympatec WINDOX software. For each measurement, per a previously optimized method, about 2 mg of powder was dispersed in 0.5 mL of 0.1% (w/v) sodium dodecyl sulfate in water and the sample was sonicated for 5 min. […] After the reference measurement, 50 μL aliquots of the sonicated suspension were added to the cell to achieve optical concentrations of between 10 to 20% and the total of six measurements were performed on each sample. Formulations immediately following air-jet milling (25IBU10.1, 25IBU10.2) and after 6 months (25IBU10.1**, 25IBU10.2**) stored at RT (IBU10.1), or at −80° C. (IBU10.2) were analyzed.
PSDs were determined using a Sympatec Helos equipped with a Cuvette module (System-Partikel-Technik GmbH, Clausthal-Zellerfeld, Germany). Data were analyzed using the Sympatec WINDOX software. For each measurement per a previously optimized method, about 2 mg of powder was dispersed in 0.5 mL of 0.1% (w/v) SLS in water and the sample was sonicated for 5 minutes. […] After the reference measurement, 50 μL aliquots of the sonicated suspension were added to the cell to achieve optical concentrations of between 10 to 20% and the total of six measurements were performed on each sample. Analyzed samples included: unprocessed IBU and IND as well as the milled samples from different sections of the jet mill including the tube after grinding chamber (bfC), the cyclone (C), the collection vessel adapter (D), the collection bag adapter (E), the collection vessel (G) and the collection bag (H) for each run. The span value was calculated according to Equation 2.
To estimate the overall D10, D50, and D90 values for the combined recovered fractions associated with each run, stacked bar charts were graphed and analyzed to determine the yield normalized cumulative PSDs. Each stacked bar corresponded to a particle size bin and its height corresponded to the volume density distributions' weighted averages by the yield for each segment of the jet mill. The D10, D50, and D90 values for the normalized cumulative PSDs were the particle sizes corresponding to the 10, 50, and 90% area of the stacked bar chart respectively.
Tween 20 and sodium lauryl sulfate (SLS) were purchased from Fisher Scientific (Fisher Scientific, Pittsburgh, PA, USA), and dH2O was used for preparing solutions. […] A reference measurement was done in 0.1% (v/v) Span 85 in light mineral oil. After a reference measurement, aliquots of […] of sonicated suspension were added to achieve optical concentrations from 10 to 20% for a total of six measurements.
Furthermore, D10, D50, and D90 values for each sample were defined as particle diameters at the 10th, 50th, and 90th percentile of the PSD. Span was calculated according to Equation 2. Normalized cumulative PSDs were composed of yield-normalized distributions, where they were depicted as stacked bar charts. D10, D50, and D90 values for normalized cumulative PSDs were calculated by approximating particle sizes associated with 10%, 50%, and 90% area of the stacked bar chart.

SA 25-05 = experiment: Endpoint time-kill synergy study; details: ibuprofen with sub-MIC antimicrobial vs antimicrobial alone, 6 hours
[2] = Helium pycnometry true density; assay type: physicochemical; details: N = 3
Experimental: Helium pycnometry: True densities were measured using an MVP-D160-E multipycnometer (Quantrachrome Instruments; FL, USA) equipped with the micro cell and adapter. Measurements were conducted in triplicates. Before pressure measurements, the multipycnometer was purged with helium gas according to the manufacturer's recommendations.
True densities were measured using a MVP-D160-E multipycnometer (Quantrachrome Instruments; FL, USA). For density measurements, the micro cell and the micro cell adapter were used, and samples weighed at least 0.1 g for the jet-milled powders depending on availability and at least 0.6 g for the unprocessed powders.

PA01 [3] = experiment: In vivo survival study after P. aeruginosa infection; design: species or system mice
Experimental: […]. […] […]. Also, the mice were weighed and assigned clinical scores, a semi-quantitative metric that rates their signs of infection from asymptomatic (0) to moribund (6), at the start of the study, at 12 hours, and at the termination of the study. […]. For this study, the mice were administered treatment on the same schedule and were observed continuously for their time of death over the course of 72 hours, by the end of which any surviving mice begin to recover. […].

PA01 [4] = experiment: Mouse model of acute P. aeruginosa pneumonia (bacterial burden, weight, clinical scores); assay type: in vivo, mice
PA HP3 = experiment: Endpoint time-kill synergy study; details: ibuprofen with sub-MIC antimicrobial vs antimicrobial alone, 9 hours
[5] = Bulk and tapped density, compressibility index and Hausner ratio; assay type: physicochemical
Experimental: In this modified method, a 10 mL graduated cylinder fitted with a molded adapter substituted the 100 mL graduated cylinder in the tapped density tester. The compressibility index (CI) and Hausner ratio (HR) calculations were performed according to the following formulas: The tapped density (rT) calculations were performed using a tapped density tester (Agilent Technologies, Santa Clara, CA, USA) with a modified method from the USP for a small mass of powder. In this modified method, a 10 mL graduated cylinder fitted with a molded adapter substituted the 100 mL graduated cylinder for the calculations of the bulk density (rB) and the use in the tapped density tester. The compressibility index (CI) and the Hausner ratio (HR) calculations were performed according to the following formulas: […]

[6] = Solubilization in aqueous DMSO/phosphate buffer solution; assay type: physicochemical; details: aqueous solution of 1% v/v DMSO in phosphate buffer, DMSO (1% v/v) and phosphate (PO4) buffer, read-out: concentration solubilized
[7] = test system: Escherichia coli strain EC J53+pmg101; experiment: In vitro bacterial growth study (OD600); assay type: cell-based; details: 10 μg/mL or 1 μg/mL ibuprofen solution added 1:1 (v:v)
PA01 [8] = experiment: Endpoint CFU counting; details: 6 hours in MH, free ibuprofen
[9] = collection bag fraction or stock, Table 8
[10] = fraction used for testing (IBU collection bag, IND cyclone) or unprocessed powder
[11] = 0.75 mg in syrup by mouth every 8 hours, 36 hours post-infection, vs syrup only

In the case of `CC(C)Cc1ccc(C(C)C(=O)O)cc1` (stereo not drawn) [ibuprofen, 2(4-isobutylphenyl)propanoic acid], the D50 [1, 9] is reported as 48.0 μm, the D90 [1, 9] is reported as 106.7 μm and the Span [1, 9] is reported as 1.8. For the same molecule, the Span [1, 10] was 1.84, the “median size (d50)” value [1, 10] was 48 μm and the “killing efficacy of ceftazidime and gentamicin (CFU/ml)” value (SA 25-05) was “significantly increased the killing efficacy of both ceftazidime and gentamicin”. For the same molecule, the “ρ (true density)” value [2] was 1.14 ± 0.00 g/mL, the survival (PA01 [3]; 72 hours, treated mice) was 92% and the weight loss (PA01 [3]; day 3) was “less weight loss”. For the same molecule, the clinical scores (PA01 [3]; days 2 and 3) was “significantly better clinical scores”, the “lung bacterial burden (CFU counts)” value (PA01 [4]; [11]) was “Significant reductions” and the “spleen bacterial burden (CFU counts)” value (PA01 [4]; [11]) was “Significant reductions”. For the same molecule, the “weight loss after infection” value (PA01 [4]; 36 hour study) was “no significant effect”, the “killing efficacy of ceftazidime and gentamicin (CFU/ml)” value (PA HP3) was “significantly increased the killing efficacy of both ceftazidime and gentamicin” and the bulk density [5] was 0.268 g/mL. For the same molecule, the tap density [5] was 0.441 g/mL, the “ρB (bulk density)” value [5] was 0.27 g/mL and the “ρT (tapped density)” value [5] was 0.44 g/mL. The solubility [6] was ≤ 5000 µg/mL, the “bacterial growth (OD600)” value [7] was “slowed and/or delayed the growth” and the CFU (PA01 [8]) was “Significant reduction in CFU”.
